Data taken from US9085608B2, “Treatment of biofilms” (LYTIX BIOPHARMA AS, priority 2008, dated 2015).
In brackets after ≈: the same amount, converted by molar mass. Entries after “also recorded” stand apart in the source; their conditions may differ. Each block holds one molecule with its values, some of them ahead of it. Residues, ends and D or L forms follow the SMILES beside them. *: point of attachment. NHPhenethyl = c1ccc(CCN*)cc1

Legend:
PIA 90 S. aureus = type: cell-based; settings: planctonic
Excerpt: (§1) Minimum Inhibitory Concentration (MIC) on Planctonic Bacteria

51-07 S. haemolyticus = type: cell-based; settings: planctonic
Excerpt: as §1

PIA 9 S. aureus = type: cell-based; settings: planctonic
Excerpt: as §1

8-16 S. epidermidis = type: cell-based; settings: planctonic
Excerpt: as §1

51-03 S. haemolyticus = type: cell-based; settings: planctonic
Excerpt: as §1

42-77 S. epidermidis = type: cell-based; settings: planctonic
Excerpt: as §1

PIA 90 S. aureus biofilm = assay: MBIC, biofilm survival rate by Alamar blue, Example 3; type: cell-based; settings: 24 h
Experimental: (§2) Biofilm formation was induced in 96-well flat bottom microtitre plates (Nunclon Surface, NUNC). First, overnight cultures were diluted 1:100 in MHIIB (S. epidermidis and S. haemolyticus) or tryptic soy broth (TSB) with 5% glucose and 5% NaCl (S. aureus). […] of this bacterial suspension (10^7 cfu/ml) was added to each well and incubated for 24 h at 37° C. After 24 h the wells were carefully washed twice with phosphate-buffered saline (PBS) to remove planktonic bacteria. The washing procedure was carefully evaluated by measuring metabolic activity of the PBS with the Alamar blue method, described in detail below.
(§3) The washed biofilms were subjected to treatment with the Compounds at different concentrations.
(§4) Trifluoroacetate salts of the compounds were dissolved in sterile water and diluted to 5 mg/L, 50 mg/L and 500 mg/L in MHIIB. […] of the Compounds, in different concentrations, were added to each well and incubated for 24 h at 37° C. Positive controls were untreated biofilms only added 200 MHIIB. Negative controls were only 200 μl MHIIB, with no bacteria added.
(§5) The metabolic activity of the biofilm was quantified with a slightly modified method previously described by Pettit et al. Antimicrob. Agents Chemother. 2005; 49: 2612-7. Briefly, after the 24 h incubation with antimicrobial agents the wells were again washed twice with PBS and then added […] MHIIB with 5% Alamar blue (AB; Biosource, Camarillo, Calif., USA). AB is a redox indicator which both fluoresces and changes colour in response to chemical reduction. The extent of reduction is a reflection of bacterial cell viability. After 1 h incubation at 37° C., absorbance was recorded at 570 and 600 nm using Versamax tuneable microplate reader (Molecular Devices, Sunnyvale, Calif., USA). All assays were performed 3 times with 8 parallels. The highest and lowest value of each run was excluded from the analyses, and the remaining 18 values were averaged.

PIA 9 S. aureus biofilm = assay: as above; type: cell-based; settings: 24 h
Experimental: as §2, §3, §4, §5

[1] = tested on: 42-77 S. epidermidis biofilm; assay: as above; type: cell-based; settings: 24 h
Experimental: as §2, §3, §4, §5

[2] = tested on: 51-07 S. haemolyticus biofilm; assay: as above; type: cell-based; settings: 24 h
Experimental: as §2, §3, §4, §5

[3] = tested on: 51-03 S. haemolyticus biofilm; assay: as above; type: cell-based; settings: 24 h
Experimental: as §2, §3, §4, §5

[4] = tested on: 8-16 S. epidermidis biofilm; assay: as above; type: cell-based; settings: 24 h
Experimental: as §2, §3, §4, §5

[5] = tested on: Staphylococcus aureus PIA 9; assay: microbe, parasite or virus in culture; settings: PIA 9
Experimental: (§6) Bacteria were grown overnight at 37° C. in cation adjusted Mueller-Hinton II Broth (MHIIB).
(§7) We determined the MICs of oxacillin, gentamicin, tetracycline, vancomycin and linezolid using E-test (AB Biodisk, Solna, Sweden) and MICs of rifampicin using broth microdilution assay. Breakpoints were interpreted according to EUCAST criteria. […] All 3 SAMPs are tripeptides with two arginine residues providing their cationic moieties (FIG. 1). The lipophilic bulk is provided by a modified tryptophane derivate. […] The molecular weights of the SAMPs are in the range of 700-800 Dalton.

[6] = tested on: Staphylococcus epidermidis TUH 08-16; assay: microbe, parasite or virus in culture; settings: TUH 08-16
Experimental: as §6, §7

[7] = tested on: Staphylococcus epidermidis RP62A ATCC 35984; assay: microbe, parasite or virus in culture; settings: ATCC 35984
Experimental: as §6, §7

[8] = tested on: Staphylococcus haemolyticus TUH 51-07; assay: microbe, parasite or virus in culture
Experimental: as §6, §7

[9] = tested on: Staphylococcus aureus PIA90; assay: microbe, parasite or virus in culture; settings: PIA90
Experimental: as §6, §7

[10] = tested on: Staphylococcus haemolyticus TUH 51-03; assay: microbe, parasite or virus in culture
Experimental: as §6, §7

[11] = tested on: 24 h old biofilm of 6 different staphylococcal strains; assay: Biofilm metabolic activity, Alamar blue reduction; type: cell-based, S. epidermidis, S. haemolyticus, S. aureus; settings: 50 mg/L, 24 h treatment; all biofilms except S. aureus PIA 9
[12] = tested on: S. haemolyticus TUH 51-07 biofilm; assay: Biofilm imaging, LIVE/DEAD staining and confocal laser scanning microscopy; type: cell-based, Staphylococcus haemolyticus; settings: 24 h treatment
Experimental: One ml aliquots of MHIIB-diluted overnight culture was used to grow S. haemolyticus TUH 51-07 biofilm on plastic coverslides (Thermanox, cellculture treated on one side, NUNC, Roskilde, Denmark) in 24-well dishes (Falcon 3047, Becton Dickinson, NJ, USA) for 24 h. The coverslides were then washed carefully with PBS, moved to a new plate and treated for 24 h with tetracycline 50 mg/L and 500 mg/L, vancomycin 50 mg/L and 500 mg/L, or Compound A 50 mg/L and 500 mg/L. The coverslides were washed again with […] and stained with a LIVE/DEAD kit (Invitrogen Molecular Probes, Eugene, Oreg., USA) following the manufacturer's instructions. This stain contains SYTO 9 (green fluorescent) and propidium iodide (PI; red fluorescent), both binding to DNA. When used alone, the SYTO 9 generally stains all bacteria in a population; both those with intact and those with damaged membranes. In contrast, PI penetrates only bacteria with damaged membranes, causing a reduction in the SYTO 9 stain green fluorescence when both dyes are present. We examined treated and untreated biofilms with a Leica TCS SP5 (Leica Microsystems CMS Gmbh, Mannheim, Germany) confocal laser scanning microscope (CLSM). Images were obtained using a 63×1.2 NA HCX PL APO water immersion lens. For detection of SYTO9 (green channel), we used the 488 nm line of the argon laser and a detection bandwidth of 495-515 nm. For PI detection (red channel), we used the 561 nm line and a detection bandwidth of 615-660 nm. The two fluorescent-signals were collected sequentially at 400 Hz. Image analyses and export was performed in Leica LAS AF version 1.8.2.

Compound: N=C(N)NCCC[C@H](NC(=O)[C@H](Cc1c[nH]c2ccccc12)NC(=O)[C@H](Cc1c[nH]c2ccccc12)NC(=O)[C@H](CCCNC(=N)N)NC(=O)[C@@H](N)Cc1c[nH]c2ccccc12)C(=O)NCCc1ccccc1 [ME 172, W-R-W-W-R-NH-CH2CH2Ph] (H-WRWWR-NHPhenethyl)
MIC (PIA 90 S. aureus): 32 mg/L (≈ 32.3 µM)
MIC (51-07 S. haemolyticus): 8 mg/L (≈ 8.06 µM)
MIC (PIA 9 S. aureus): 16 mg/L (≈ 16.1 µM)
MIC (8-16 S. epidermidis): 16 mg/L (≈ 16.1 µM)
MIC (51-03 S. haemolyticus): 8 mg/L (≈ 8.06 µM)
MIC (42-77 S. epidermidis): 16 mg/L (≈ 16.1 µM)
MBIC measured as survival rate (PIA 90 S. aureus biofilm; 5 μg/ml): 100%
MBIC measured as survival rate (PIA 90 S. aureus biofilm; 50 μg/ml): 55%
MBIC measured as survival rate (PIA 90 S. aureus biofilm; 500 μg/ml): 10%
MBIC measured as survival rate (PIA 9 S. aureus biofilm; 5 μg/ml): 100%
MBIC measured as survival rate (PIA 9 S. aureus biofilm; 50 μg/ml): 100%
MBIC measured as survival rate (PIA 9 S. aureus biofilm; 500 μg/ml): 18%
MBIC measured as survival rate ([1]; 5 μg/ml): 100%
MBIC measured as survival rate ([1]; 50 μg/ml): 85%
MBIC measured as survival rate ([1]; 500 μg/ml): 10%
MBIC measured as survival rate ([2]; 5 μg/ml): 100%
MBIC measured as survival rate ([2]; 50 μg/ml): 41%
MBIC measured as survival rate ([2]; 500 μg/ml): 12%
MBIC measured as survival rate ([3]; 5 μg/ml): 100%
MBIC measured as survival rate ([3]; 50 μg/ml): 6%
MBIC measured as survival rate ([3]; 500 μg/ml): 8%
MBIC measured as survival rate ([4]; 5 μg/ml): 100%
MBIC measured as survival rate ([4]; 50 μg/ml): 80%
MBIC measured as survival rate ([4]; 500 μg/ml): 20%

MIC [5]: 8 mg/L (≈ 11 µM)
MIC [6]: 4 mg/L (≈ 5.51 µM)
MIC [7]: 8 mg/L (≈ 11 µM)
MIC [9]: 8 mg/L (≈ 11 µM)
Compound: CC(C)NC(=O)[C@H](CCCNC(=N)N)NC(=O)[C@H](Cc1c(C(C)(C)C)[nH]c2c(C(C)(C)C)cc(C(C)(C)C)cc12)NC(=O)[C@@H](N)CCCNC(=N)N [Compound A]
MIC [8]: 8 mg/L (≈ 11 µM)
MIC [10]: 8 mg/L (≈ 11 µM)
suppression of metabolic activity (AB reduction) [11]: strong or complete suppression
LIVE/DEAD staining of biofilm cells (CLSM) ([12]; 50 mg/L): almost all cells are stained red
LIVE/DEAD staining of biofilm cells (CLSM) ([12]; 500 mg/L): almost all cells are stained red; also recorded: membrane damage of all cells

Compound: N=C(N)NCCC[C@H](NC(=O)[C@H](Cc1c[nH]c2ccccc12)NC(=O)[C@H](Cc1c[nH]c2ccccc12)NC(=O)[C@@H](N)CCCNC(=N)N)C(=O)NCCc1ccccc1 [ME 171 B, R-W-W-R-NH-CH2CH2Ph] (H-RWWR-NHPhenethyl)
MIC (PIA 90 S. aureus): 128 mg/L (≈ 159 µM)
MIC (51-07 S. haemolyticus): 32 mg/L (≈ 39.7 µM)
MIC (PIA 9 S. aureus): 128 mg/L (≈ 159 µM)
MIC (8-16 S. epidermidis): 64 mg/L (≈ 79.4 µM)
MIC (51-03 S. haemolyticus): 32 mg/L (≈ 39.7 µM)
MIC (42-77 S. epidermidis): 64 mg/L (≈ 79.4 µM)
MBIC measured as survival rate (PIA 90 S. aureus biofilm; 5 μg/ml): 100%
MBIC measured as survival rate (PIA 90 S. aureus biofilm; 50 μg/ml): 80%
MBIC measured as survival rate (PIA 90 S. aureus biofilm; 500 μg/ml): 5%
MBIC measured as survival rate (PIA 9 S. aureus biofilm; 5 μg/ml): 100%
MBIC measured as survival rate (PIA 9 S. aureus biofilm; 50 μg/ml): 100%
MBIC measured as survival rate (PIA 9 S. aureus biofilm; 500 μg/ml): 90%
MBIC measured as survival rate ([1]; 5 μg/ml): 100%
MBIC measured as survival rate ([1]; 50 μg/ml): 90%
MBIC measured as survival rate ([1]; 500 μg/ml): 10%
MBIC measured as survival rate ([2]; 5 μg/ml): 100%
MBIC measured as survival rate ([2]; 50 μg/ml): 60%
MBIC measured as survival rate ([2]; 500 μg/ml): 12%
MBIC measured as survival rate ([3]; 5 μg/ml): 100%
MBIC measured as survival rate ([3]; 50 μg/ml): 8%
MBIC measured as survival rate ([3]; 500 μg/ml): 9%
MBIC measured as survival rate ([4]; 5 μg/ml): 100%
MBIC measured as survival rate ([4]; 50 μg/ml): 70%
MBIC measured as survival rate ([4]; 500 μg/ml): 4%
